Target: T1, MDR-1 (Homo sapiens, UniProt P08183)
T1 construct: endogenous in cells; host or cells: 9HTEo-/Dx cells
Test: MDR-1 activity, ^3H-vincristine accumulation in 9HTEo-/Dx cells
Format: cell-based
Conditions: 100 μM

T1 sequence (P08183 whole entry): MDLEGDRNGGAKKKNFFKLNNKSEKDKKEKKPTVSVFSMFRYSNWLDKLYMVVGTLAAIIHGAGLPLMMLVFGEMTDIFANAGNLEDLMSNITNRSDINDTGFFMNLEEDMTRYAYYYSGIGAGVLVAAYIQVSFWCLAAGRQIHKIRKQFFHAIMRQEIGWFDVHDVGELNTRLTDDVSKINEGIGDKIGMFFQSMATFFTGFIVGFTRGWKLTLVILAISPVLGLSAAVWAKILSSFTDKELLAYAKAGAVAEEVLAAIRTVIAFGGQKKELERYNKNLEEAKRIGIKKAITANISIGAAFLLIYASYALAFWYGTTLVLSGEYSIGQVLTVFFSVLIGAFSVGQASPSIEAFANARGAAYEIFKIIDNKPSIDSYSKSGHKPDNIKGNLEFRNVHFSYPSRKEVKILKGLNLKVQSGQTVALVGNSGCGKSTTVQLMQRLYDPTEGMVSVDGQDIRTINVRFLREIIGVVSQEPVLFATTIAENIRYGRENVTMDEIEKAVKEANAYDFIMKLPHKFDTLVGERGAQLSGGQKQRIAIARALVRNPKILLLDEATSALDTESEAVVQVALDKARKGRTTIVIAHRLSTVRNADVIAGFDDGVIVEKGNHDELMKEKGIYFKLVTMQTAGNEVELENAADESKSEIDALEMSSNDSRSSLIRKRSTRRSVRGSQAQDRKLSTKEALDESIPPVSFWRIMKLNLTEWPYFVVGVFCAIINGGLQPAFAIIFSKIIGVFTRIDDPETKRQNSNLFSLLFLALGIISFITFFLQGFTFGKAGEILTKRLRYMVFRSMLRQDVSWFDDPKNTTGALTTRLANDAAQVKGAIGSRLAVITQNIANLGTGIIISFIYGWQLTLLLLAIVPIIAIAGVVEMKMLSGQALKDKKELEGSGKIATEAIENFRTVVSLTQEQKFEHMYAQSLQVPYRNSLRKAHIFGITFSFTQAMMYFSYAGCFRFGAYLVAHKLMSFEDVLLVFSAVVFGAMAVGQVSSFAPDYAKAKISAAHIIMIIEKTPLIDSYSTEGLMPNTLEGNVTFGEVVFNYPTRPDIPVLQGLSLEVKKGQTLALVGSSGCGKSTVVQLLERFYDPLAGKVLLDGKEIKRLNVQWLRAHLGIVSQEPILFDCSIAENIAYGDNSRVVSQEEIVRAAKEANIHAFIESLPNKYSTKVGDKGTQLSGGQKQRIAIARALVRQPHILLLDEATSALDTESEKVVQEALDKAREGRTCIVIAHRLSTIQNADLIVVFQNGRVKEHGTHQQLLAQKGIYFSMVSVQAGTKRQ

Compound	vincristine accumulation
COc1ccc(CCN(C)CCCC(C#N)(c2ccc(OC)c(OC)c2)C(C)C)cc1OC (stereo not shown) [verapamil, reference compound]	strongly increased

System: Caco-2 monolayers
Test: not given
Conditions: literature values, Stenberg et al.; cited from earlier work

Compound	permeability coefficient [×10⁻⁶ cm/s]
CC(C)NCC(O)COc1cccc2[nH]ccc12 (stereo not shown) [pindolol]	36
CCCc1nn(C)c2c(=O)[nH]c(-c3cc(S(=O)(=O)N4CCN(C)CC4)ccc3OCC)nc12 [sildenafil]	48

Target: wildtype CFTR (Homo sapiens, UniProt P13569)
Sequence (P13569 whole entry): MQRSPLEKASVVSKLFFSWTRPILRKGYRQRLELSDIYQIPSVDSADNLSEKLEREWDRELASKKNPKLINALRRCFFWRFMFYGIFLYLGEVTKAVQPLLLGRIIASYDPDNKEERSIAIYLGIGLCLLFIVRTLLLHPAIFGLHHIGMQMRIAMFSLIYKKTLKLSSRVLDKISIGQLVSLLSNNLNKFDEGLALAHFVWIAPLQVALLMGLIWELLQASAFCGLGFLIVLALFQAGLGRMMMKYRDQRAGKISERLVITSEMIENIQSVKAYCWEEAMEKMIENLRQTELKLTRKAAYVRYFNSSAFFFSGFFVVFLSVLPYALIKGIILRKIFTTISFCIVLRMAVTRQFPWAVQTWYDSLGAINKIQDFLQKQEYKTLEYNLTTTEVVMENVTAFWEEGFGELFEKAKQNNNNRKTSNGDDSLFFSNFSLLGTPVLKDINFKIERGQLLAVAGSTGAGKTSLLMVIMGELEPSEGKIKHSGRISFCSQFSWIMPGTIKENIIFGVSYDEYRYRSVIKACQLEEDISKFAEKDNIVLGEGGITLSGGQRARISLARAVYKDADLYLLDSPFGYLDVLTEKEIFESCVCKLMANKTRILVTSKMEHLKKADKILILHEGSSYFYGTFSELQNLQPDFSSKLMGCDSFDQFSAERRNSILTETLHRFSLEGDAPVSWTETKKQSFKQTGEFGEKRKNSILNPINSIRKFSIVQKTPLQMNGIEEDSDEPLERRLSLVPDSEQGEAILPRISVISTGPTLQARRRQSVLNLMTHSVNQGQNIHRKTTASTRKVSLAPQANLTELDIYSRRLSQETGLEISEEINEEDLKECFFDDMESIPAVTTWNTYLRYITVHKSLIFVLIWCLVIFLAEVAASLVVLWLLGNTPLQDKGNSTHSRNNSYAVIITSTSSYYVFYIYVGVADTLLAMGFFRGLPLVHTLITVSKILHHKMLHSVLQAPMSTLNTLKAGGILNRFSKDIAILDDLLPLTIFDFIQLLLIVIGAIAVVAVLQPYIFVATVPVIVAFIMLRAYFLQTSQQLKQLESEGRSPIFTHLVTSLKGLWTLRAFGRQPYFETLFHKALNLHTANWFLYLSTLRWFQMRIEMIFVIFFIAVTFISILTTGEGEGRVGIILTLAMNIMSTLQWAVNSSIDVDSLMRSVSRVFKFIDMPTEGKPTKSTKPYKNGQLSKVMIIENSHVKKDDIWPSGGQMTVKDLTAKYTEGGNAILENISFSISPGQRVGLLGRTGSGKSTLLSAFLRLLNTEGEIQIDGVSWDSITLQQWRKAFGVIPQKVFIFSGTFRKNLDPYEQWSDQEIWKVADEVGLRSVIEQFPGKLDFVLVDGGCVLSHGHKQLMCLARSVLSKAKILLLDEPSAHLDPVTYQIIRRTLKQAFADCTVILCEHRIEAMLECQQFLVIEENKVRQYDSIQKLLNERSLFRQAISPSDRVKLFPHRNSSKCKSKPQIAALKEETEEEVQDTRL
Test: YFP fluorescence assay of CFTR-mediated I^− transport in FRT cells
Format: cell-based
Set-up: expressed in transfected cells; host or cells: Fischer rat thyroid (FRT) cells
Conditions: relative to CFTRinh-172 = 1.0
Method: FIG. 1A is a schematic representation of a screening technique used for detection of CFTR inhibitors. CFTR was maximally stimulated by multiple agonists in stably transfected epithelial cells co-expressing human CFTR and a yellow fluorescent protein (YFP) having Cl^−/I^− sensitive fluorescence. After addition of a test compound, I^− influx was induced by adding an I^− containing solution.
Cells were plated in 96-well black-walled microplates (Corning Costar) at a density of 20,000 cells per well in Coon's modified F12 medium supplemented with 5% fetal calf serum, 2 mM L-glutamine, 100 U/mL penicillin, and 100 μg/mL streptomycin. Assays were done at 48 hours after plating at which time cells were just confluent (˜40,000 cells per well).
Assays were done using a customized screening system (Beckman) consisting of a 3-meter robotic arm, CO2 incubator, plate washer, liquid handling workstation, bar code reader, delidding station, and two FluoStar fluorescence plate readers (BMG Labtechnologies, Offenburg, Germany), each equipped with two syringe pumps and HQ500/20X (500±10 nm) excitation and HQ535/30M (535±15 nm) emission filters (Chroma). The robotic system was integrated using SAMI version 3.3 software (Beckman) modified for two plate readers. Custom software was written in VBA (Visual Basic for Applications) to compute baseline-subtracted, normalized fluorescence slopes (giving halide influx rates) from stored data files.
The assay was set-up by loading the incubator (37° C., 90% humidity, 5% CO2) with 40-60 96-well plates containing the FRT cells, and loading a carousel with 96-well plates containing test compounds and disposable plastic pipette tips. To initiate the assay, each well of a 96-well plate was washed 3 times in PBS (300 μL/wash), leaving 50 μL PBS. Ten μL of a CFTR-activating cocktail (5 μM forskolin, 100 μM IBMX, 25 μM apigenin in PBS) was added, and after 5 min one test compound (0.5 μL of 1 mM DMSO solution) was added to each well to give 10 μM final concentration. After 10 min, 96-well plates were transferred to a plate reader for fluorescence assay. Each well was assayed individually for CFTR-mediated I^− transport by recording fluorescence continuously (200 ms per point) for 2 s (baseline) and then for 12 s after rapid (<0.5 s) addition of 160 μL of isosmolar PBS in which 137 mM Cl^− was replaced by I^−.
The primary screening technique used to identify the compounds of the invention was designed to identify inhibitors of CFTR Cl^− conductance by direct CFTR-inhibitor interaction. CFTR was pre-stimulated in CFTR-expressing FRT cells by an activating cocktail containing forskolin, IBMX and apigenin, as shown schematically in FIG. 1A. The activation of CFTR by multiple mechanisms (cAMP elevation, phosphodiesterase inhibition, and direct CFTR binding) allowed identification of inhibitors that blocked the CFTR Cl^− transporting pathway directly rather than more proximal step(s) in a signaling pathway. The FRT cells co-expressed a yellow fluorescent protein-based Cl^−/I^− sensor that provided a quantitative fluorescence read-out of inhibition potency (See, e.g., Jayaraman et al., 2000, J. Biol. Chem. 275:6047-6050; Galietta et al., 2001, Am. J. Physiol. 281:C1734-C1742.). After CFTR pre-stimulation and compound addition, cells were subjected to an inwardly-directed I^− gradient to drive I^− influx and produce decreasing fluorescence. Each assay consisted of recording baseline fluorescence for 2 seconds, followed by 12 seconds of continuous recording of fluorescence after rapid addition of the I^− containing solution. Compounds were tested separately at 10 μM concentration in a 96-well format utilizing a fully-automated high-throughput screening apparatus (see Example 2 below).

Compound	relative potency (CFTR inhibition)
O=C(O)c1ccccc1C=C1SC(=S)N(c2ccccc2C(F)(F)F)C1=O [2, 3, 3-[(a-trifluoromethyl)phenyl]-5-[(b-carboxyphenyl)methylene]-2-thioxo-4-thiazolidinone]	0.70
O=C(O)c1ccccc1C=C1SC(=S)N(c2ccccc2C(F)(F)F)C1=O [2, 4, 3-[(a-trifluoromethyl)phenyl]-5-[(b-carboxyphenyl)methylene]-2-thioxo-4-thiazolidinone]	0.66
O=C(O)c1ccccc1C=C1SC(=S)N(c2ccccc2C(F)(F)F)C1=O [3, 2, 3-[(a-trifluoromethyl)phenyl]-5-[(b-carboxyphenyl)methylene]-2-thioxo-4-thiazolidinone]	0.74
O=C(O)c1ccccc1C=C1SC(=S)N(c2ccccc2C(F)(F)F)C1=O [3, 3, 3-[(a-trifluoromethyl)phenyl]-5-[(b-carboxyphenyl)methylene]-2-thioxo-4-thiazolidinone]	0.90
O=C(O)c1ccccc1C=C1SC(=S)N(c2ccccc2C(F)(F)F)C1=O [4, 2, 3-[(a-trifluoromethyl)phenyl]-5-[(b-carboxyphenyl)methylene]-2-thioxo-4-thiazolidinone]	0.67
O=C(O)c1ccccc1C=C1SC(=S)N(c2ccccc2C(F)(F)F)C1=O [4, 3, 3-[(a-trifluoromethyl)phenyl]-5-[(b-carboxyphenyl)methylene]-2-thioxo-4-thiazolidinone]	0.64
O=C(O)c1ccccc1C=C1SC(=S)N(c2ccccc2C(F)(F)F)C1=O [4, 4, 3-[(a-trifluoromethyl)phenyl]-5-[(b-carboxyphenyl)methylene]-2-thioxo-4-thiazolidinone]	0.56
O=C1/C(=C/c2ccc([N+](=O)[O-])cc2)SC(=S)N1c1cccc(C(F)(F)F)c1 [CFTRinh-020, 3-[(3-trifluoromethyl)phenyl]-5-[(4-nitrophenyl)methylene]-2-thioxo-4-thiazolidinone]	0.2
O=C(O)Oc1ccc(/C=C2\SC(=S)N(c3cccc(C(F)(F)F)c3)C2=O)cc1 [CFTRinh-029, 3-[(3-trifluoromethyl)phenyl]-5-[(4-oxycarboxyphenyl)methylene]-2-thioxo-4-thiazolidinone]	0.3
O=C1/C(=C/c2ccc(O)c(O)c2)SC(=S)N1c1cccc(C(F)(F)F)c1 [CFTRinh-185, 3-[(3-trifluoromethyl)phenyl]-5-[(3,4-dihydroxyphenyl)methylene]-2-thioxo-4-thiazolidinone]	0.2
O=C1/C(=C/c2cc(Br)c(O)c(Br)c2)SC(=S)N1c1cccc(C(F)(F)F)c1 [CFTRinh-214, 3-[(3-trifluoromethyl)phenyl]-5-[(3,5-dibromo-4-hydroxyphenyl)methylene]-2-thioxo-4-thiazolidinone]	0.1
O=C1/C(=C/c2cc(Br)c(O)c([N+](=O)[O-])c2)SC(=S)N1c1cccc(C(F)(F)F)c1 [CFTRinh-236, 3-[(3-trifluoromethyl)phenyl]-5-[(3-bromo-4-hydroxy-5-nitrophenyl)methylene]-2-thioxo-4-thiazolidinone]	0.1
O=C(O)c1ccccc1C=C1SC(=S)N(c2ccccc2C(F)(F)F)C1=O [a=2, b=2, 3-[(a-trifluoromethyl)phenyl]-5-[(b-carboxyphenyl)methylene]-2-thioxo-4-thiazolidinone]	0.69

— patent publication US8058295B2, “Cystic fibrosis transmembrane conductance regulator protein inhibitors and uses thereof” (The Regents of the University of California, priority 2002, dated 2011)
